Measured values from article PMC6538953, “Metal Ions Activate the Human Taste Receptor TAS2R7” (Chemical Senses, 2019).
Positions count from the first letter of the chain named. Like-named read-outs stand apart in the source and are kept apart here.

Experiments:
[1] = target: T1, human TAS2R7 E264^7.32K mutant (Homo sapiens, UniProt Q9NYW3, E264K); test: Calcium mobilization assay, TAS2R7 mutant E264K; format: cell-based; settings: 20 mM metal ions except 0.16 mM Al2(SO4)3; cromolyn 10 mM; Figure 6B
T1 construct: signal peptide: first 45 amino acid residues of rat somatostatin receptor 3 (N); expressed in transfected cells; host or cells: HEK293 PEAKrapid (ATCC CRL-2828), transient, co-transfected with Gα16-gust44
T1 sequence (Q9NYW3 1-318 E264K): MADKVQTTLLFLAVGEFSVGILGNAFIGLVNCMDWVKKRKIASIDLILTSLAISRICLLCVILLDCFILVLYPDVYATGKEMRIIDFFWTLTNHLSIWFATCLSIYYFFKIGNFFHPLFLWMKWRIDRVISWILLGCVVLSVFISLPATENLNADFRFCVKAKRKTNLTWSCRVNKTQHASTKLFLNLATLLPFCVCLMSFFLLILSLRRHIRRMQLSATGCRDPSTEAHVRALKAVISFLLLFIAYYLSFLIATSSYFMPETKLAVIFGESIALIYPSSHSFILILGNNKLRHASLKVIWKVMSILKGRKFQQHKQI
Description: (§1) The coding sequences of human TAS2Rs were amplified from human genomic DNA, then subcloned into pcDNA3.1(+) vector, with the herpes simplex virus glycoprotein D epitope (HSV) at the C-terminal and a signal peptide consisting of the first 45 amino acid residues of the rat somatostatin receptor 3 at the N-terminal, essentially as described previously ([Bufe et al. 2002]). Point mutations in human TAS2R7 (NCBI Reference Sequence: NP_076408.1) were constructed by site-directed mutagenesis. All the constructs were confirmed by Sanger sequencing.
(§2) Human embryonic kidney 293 (PEAKrapid, ATCC # CRL-2828) cells were cultured in Opti-MEM medium with 4% fetal bovine serum. One day before transfection, cells were seeded on a 96-well plate at a density of 25 000 per well. Cells were then transiently transfected with a TAS2R construct (0.1 µg/well) along with a G protein Gα16-gust44 (0.1 µg/well) construct by Lipofectamine 2000 (0.5 µl/well). For controls, only Gα16-gust44 was used (mock transfection). Twenty-four hours after transfection, cells were washed with HBSS including 10 mM HEPES and loaded with Fluo-4 in the dark for 1 h. After incubation, cells were washed 2 times with HBSS (including 10 mM HEPES), incubated in the dark for another 30 min, and then washed with assay solution once more before running the assay using a FlexStation III reader. Relative fluorescence units (excitation at 494 nm, emission at 516 nm, and auto cutoff at 515 nm) were read every 2 s for 2 min. Calcium mobilization traces were recorded.
(§3) Calcium mobilization traces were raw data obtained from single wells. Changes in fluorescence (ΔF) were calculated as the peak fluorescence minus baseline fluorescence ([Lei et al. 2015]). The calcium mobilization was quantified as the percentage of change (ΔF) relative to baseline (F). […] Calcium mobilization traces and bar graphs along with dose-dependent plots were all generated by GraphPad Prism 7. Analysis of variance with Dunnett’s multiple comparisons test was used for statistical analysis. *P < 0.05.
To assess the importance of these residues, we performed site-directed mutagenesis. We mutated the negatively charged residues E16^1.42, E264^7.32, and E271^7.39 to Q (glutamine), K (lysine), or L (leucine). The facing H94^3.37 was mutated to F (phenylalanine). HEK293 cells that expressed mutant receptors along with Gα16-gust44 were examined for their responses to metal ions (20 mM for all except 0.16 mM Al2(SO4)3) and cromolyn (10 mM, as a positive control) to assess receptor’s function. To determine the expression level of each receptor, we stained the wild-type or mutant receptor-transfected cells using an anti-HSV antibody since all the receptors are tagged with HSV at c-terminal. […]

[2] = target: T2, human TAS2R7 (Homo sapiens, UniProt Q9NYW3); test: Calcium mobilization assay, HEK293 cells transfected with TAS2R7 and Gα16-gust44; format: cell-based
T2 construct: first 45 residues of rat somatostatin receptor 3 (signal peptide) (N); expressed in transfected cells; host or cells: HEK293 (PEAKrapid, ATCC CRL-2828)
T2 sequence (Q9NYW3 1-318): T1 sequence (Q9NYW3 1-318 E264K) with K264E
Description: as §1
All tested compounds were purchased from Sigma–Aldrich, with the exception of diphenidol hydrochloride (Reagent World) and L-praziquantel (manufactured by Shaoxing Pharmaceutical Co. Ltd.). All the metal ions were dissolved in the assay solution (130 mM NaCl, 5 mM KCl, 2 mM CaCl2, and 10 mM glucose; pH 7.4) unless specified otherwise, and the bitter compounds (diphenidol, quinine, and chlorphenamine) were dissolved first in dimethyl sulfoxide (DMSO) as stock solution and then diluted with the assay solution; the final DMSO concentration was below 0.5%, with the exception of cromolyn, which is dissolved in the assay solution directly. For our initial screening (Table 1), Hanks’ balanced salt solution (HBSS, ThermoFisher, catalog no. 14025134) supplemented with 10 mM hydroxyethyl piperazineethanesulfonic acid (HEPES) were used as the assay buffer.
as §2, §3
To determine whether a TAS2R responds to metal ions, we expressed all 25 human bitter receptors individually in HEK293 cells (PEAKrapid) by transient transfection of a TAS2R along with a coupling chimeric G protein, Gα16-gust44. All TAS2Rs were cloned from human genomic DNA. Activation of human TAS2Rs was monitored by the calcium mobilization assay ([Lei et al. 2015]). We tested these receptors individually for their responses toward metal ions: ZnSO4 (20 mM), CuSO4 (20 mM), and MgCl2 (20 mM) (Table 1, Figure 1A). […] To determine the breadth of tuning of TAS2R7 toward metal ions, we also tested MnCl2 (20 mM), Al2(SO4)3 ([…]), and CaCl2 (20 mM) (Figure 1B).

Question: Which results are given for `O=C(O)c1cc(=O)c2c(OCC(O)COc3cccc4oc(C(=O)O)cc(=O)c34)cccc2o1` [cromolyn, reference compound]?
Answer: Response of E264K mutant receptor [1]: reduced; Response of TAS2R7-transfected cells at higher dose ([2]; 10 mM): robust response; EC50 ([2]; Figure 4B, read-out: EC50, TAS2R7, dose-response analysis): 5.9 mM; EC50 ([2]; assay solution containing calcium, Figures 3A, 4C, read-out: EC50, TAS2R7, in the presence of calcium): 6.67 mM; EC50 ([2]; assay solution containing no calcium, Figures 3A, 4C, read-out: EC50, TAS2R7, in the absence of calcium): 5.22 mM; Maximal response of TAS2R7 in the absence versus presence of calcium ([2]; assay solution without calcium compared with calcium): smaller; Compounds triggering detectable responses in cells transfected with TAS2R7 ([2]; at the concentrations reported previously (Meyerhof et al. 2010), Figure 4A): none
